This note sets out measurements from patent US12583872B2, “Photosensitizer compounds, methods of manufacture and application to plants” (NUTRIEN AG SOLUTIONS (CANADA) INC., priority 2019, dated 2026).

Experiment [1] concerns Pseudomonas syringae pv. tabaci. Nature of the experiment: Relative inactivation of Pseudomonas syringae pv. tabaci in PBS (CFU count). It is filed as cell-based. The following applies: for Relative Inactivation (log[CFUcontrol mL^−1] − log[CFUtreatment mL^−1]): concentration not given; for Killing of bacteria: light treatment. As to the method:
Experiments were conducted to evaluate control of the gram-negative bacterial plant pathogen Pseudomonas syringae pv. tabaci with modified Ce6. Treatments were prepared in Phosphate Buffered Saline (PBS) in 96 well plates at desired concentrations. A bacterial suspension was inoculated into the PBS and incubated at 28° C. in the dark for 30 min. After 30 min, the 96 well plate was placed under illumination for 1 hour (at 21° C.). A separate plate prepared at the same time was kept in the dark without illumination and served as dark control. Following illumination, bacterial suspensions were serially diluted and 10 μL of each dilution was spread uniformly on Tryptic Soy Agar (TSA) plates and placed in the dark in an incubator at 28° C. for 48 hours. After 48 hours, bacterial colonies were counted and results were log transformed (log colony forming units (CFU)/mL). The relative inactivation was determined by taking the difference between log CFU (PBS control) and log CFU (treatments). Sample Illumination was provided by LED lights (Heliospectra RX30) emitting about 1000 μmol/m^2/s photosynthetically active radiation (PAR). The modified Ce6 that were evaluated are the Ce6-mix-DMAE^15,17 amide, Ce6-bis-DMAE^15,17 amide and Ce6-mono-DMAE^15 amide.

For experiment [2], the system named is dollar spot fungus (Sclerotinia homoeocarpa). Nature of the experiment: Dollar spot fungus agar plate assay (amended PDA, radial growth). It is filed as cell-based. The following applies: for inhibition at 10 µM: Clarireedia homoeocarpa. How it is done: Control of dollar spot fungus (Sclerotinia homoeocarpa) with Ce6-mix-DMAE^15,17 amide and Ce6Na3 (comparative) was assessed. Treatments were amended into Potato Dextrose Agar (PDA) at desired concentrations. Then, a 5 mm diameter plug of a Sclerotinia homoeocarpa isolate (3 isolates total tested) was inoculated into the center of the amended Petri-dish and incubated at 21° C. in the dark for 24 h. After 24 h, one set of Petri-dishes (in triplicate) was left in the dark (no light) and one set was placed under illumination (light) for the remainder of the experiment (all at 21° C.). Radial growth of the fungus was monitored daily until the growth of S. homoeocarpa on non-amended PDA reached the edge of the Petri-dish. Illumination was provided by fluorescent lights emitting about 180 μmol/m^2/s photosynthetically active radiation (PAR).
Agar protocol: control of dollar spot fungus (Sclerotinia homoeocarpa) with modified Ce6 was assessed. Treatments were amended into Potato Dextrose Agar (PDA) at desired concentrations. Then, a 5 mm diameter plug of a Sclerotinia homoeocarpa isolate (3 isolates total tested) was inoculated into the center of the amended Petri-dish and incubated at 21° C. in the dark for 24 hours. After 24 hours, one set of Petri-dishes (in triplicate) was left in the dark and one set was placed under illumination for the remainder of the experiment (all at 21° C.). Radial growth of the fungus was monitored daily until the growth of S. homoeocarpa on non-amended PDA reaches the edge of the Petri-dish. Illumination was provided by fluorescent lights emitting about 180 μmol/m2/s photosynthetically active radiation (PAR).

In experiment [3] the test system is Pseudomonas syringae pv tabacci. The experiment can be described thus: Control of bacterial pathogen Pst on Arabidopsis thaliana. The following applies: 0.05% + surfactants (0.5% propylene glycol + 0.1% Pluronics F-127); host Arabidopsis thaliana; yellow leaves/plant. In kind it is in vivo. As to the method: Arabidopsis thaliana plants were grown under 12 hours:12 hours, light:dark photoperiod, under LED lights (PAR 24 μmol m^−2 s^−1), at a temperature of 25° C.±3° C. and 65% relative humidity. After 3 weeks, plants were sprayed with formulations (50% dilution in water), allowed to dry for 2 h, after which Pseudomonas syringae pv tabacci (at OD0.08 diluted in 10 mM MgCl2) was sprayed. Plants were kept under plastic domes until symptoms develop. Disease severity was rated by counting the number of yellow leaves/plant. Data are average of 3 replicas.

The test system of experiment [4] is Colletotrichum orbiculare ATC20767 (Cgm). Nature of the experiment: Control of fungal pathogen Cgm on Nicotiana benthamiana. It is filed as in vivo. The note with it: 0.05% + Surfactants (0.5% propylene glycol + 0.1% Pluronics F-127) (Table 14); host Nicotiana benthamiana. As to the method: Control of the fungal plant pathogen Colletotrichum orbiculare ATC20767 (Cgm) on the host plant Nicotiana benthamiana following treatment with modified Chlorin e6 compounds was assessed. Treatments were applied to N. benthamiana plants approximately 2 h prior to inoculation with a spore suspension of Cgm. Plants were then exposed to light for a 24-hour period followed by dark incubation until disease symptoms were evident on the water treated control plants. Once disease symptoms were evident, lesions were counted and leaf area measured in order to determine the number of lesions/cm^2 leaf area. Four replicate plants were used per treatment and plants were randomized under the light source. Illumination was provided by LED lights emitting about 180 μmol/m^2/s photosynthetically active radiation (PAR).

Experiment [5] has as its system dollar spot fungus (Sclerotinia homoeocarpa). Nature of the experiment: Dollar spot fungus broth protocol (PBS treatment, then radial growth on PDA). In kind it is cell-based. The note with it: Broth data; for inhibition at 100 µM: Clarireedia homoeocarpa. As to the method: Broth protocol: control of dollar spot fungus (Sclerotinia homoeocarpa) with modified chlorins was assessed. Treatments were prepared in Phosphate Buffered Saline (PBS) in 24 well plates (in duplicates for light vs. dark incubation) at desired concentrations. Then, a 5 mm diameter plug of a Sclerotinia homoeocarpa isolate (3 isolates total tested) was inoculated into the PBS and incubated at 21° C. in the dark for 2 hours. After 2 hours, one of the 24 well plates (with isolates in triplicate) was left in the dark and one 24 well plate was placed under illumination for 1 hour (all at 21° C.). Following illumination, fungal plugs were removed from PBS, blotted dry on sterile filter paper and transferred to non-amended Potato Dextrose Agar (PDA). Radial growth of the fungus was monitored daily until the growth of S. homoeocarpa reached the edge of the Petri-dish. Illumination was provided by LED lights emitting about 1000 μmol/m2/s photosynthetically active radiation (PAR).

Experiment [6] relates to Kentucky bluegrass (Poa pratensis). The experiment can be described thus: Kentucky bluegrass tolerance to salt stress (turf quality). The note with it: 0.1%; 170 mM NaCl, 2 salt applications; scale 1-9 (1=dead, 9=healthy). In kind it is in vivo. As to the method: Kentucky bluegrass (Poa pratensis) was grown under greenhouse conditions for ˜3 weeks. After 3 weeks, plants were sprayed with formulations and allowed to sit for 24 hours, after which the pots were placed in a 170 mM NaCl solution until the soil was saturated. The salt application was repeated again 7 days later for a total of 2 salt applications. Salinity stress was evaluated based on a turf quality scale of 1-9; where 1=dead, brown turf; 6=minimally acceptable turf quality (based on standards for golf courses or sports fields); and 9=dense, dark green turf (healthy). Data are average of 5 replicates.

Where [7] appears, read: Light: 1 hour about 1000 μmol/m^2/s PAR after 30 min dark incubation, where no CFU were left, treatment set to 1 CFU/mL.
The mark [8] stands for this setting: Agar data, 10 uM, Dark (Table 5).
[9] abbreviates: Agar data, 10 uM, Light (Table 5).

SMILES strings stand for the structures.

For the compound `C=Cc1c(C)c2cc3nc(c(CC(=O)NCCN(C)C)c4[nH]c(cc5nc(cc1[nH]2)C(C)=C5CC)c(C)c4C(=O)O)[C@@H](CCC(=O)NCCN(C)C)[C@@H]3C` [Ce6-bis-DMAE^15,17 amide], the figures for the “Relative Inactivation (log[CFUcontrol mL^−1] − log[CFUtreatment mL^−1])” value in experiment [1] (Dark control plate) and in experiment [1] (setting [7]) were 1.13 ± 0.42 and 7.98 ± 0.65, respectively. In addition, the “Killing of bacteria” value in experiment [1] is “killed all bacteria”.
Take `C=Cc1c(C)c2cc3nc(c(CC(=O)NCCNCCCC)c4[nH]c(cc5nc(cc1[nH]2)C(C)=C5CC)c(C)c4C(=O)O)[C@@H](CCC(=O)O)[C@@H]3C` [Ce6-mono-BAE^15 amide]: the inhibition at 10 µM is 49% in experiment [2] (setting [8]) and 99% in experiment [2] (setting [9]).
`C=Cc1c(C)c2cc3nc(c(CC(=O)NCCN(C)C)c4[nH]c(cc5nc(cc1[nH]2)C(C)=C5CC)c(C)c4C(=O)O)[C@@H](CCC(=O)O)[C@@H]3C` [Ce6-mono-DMAE^15 amide]: the “Relative Inactivation (log[CFUcontrol mL^−1] − log[CFUtreatment mL^−1])” value in experiment [1] (Dark control plate) was 0.21 ± 0.33; in experiment [1] (setting [7]), 7.98 ± 0.65. The “Killing of bacteria” value in experiment [1] is “killed all bacteria”. The “Disease inhibition, %” value in experiment [3] came out at 56%; in experiment [4], 94%.
Regarding `C=Cc1c(C)c2cc3nc(c(CC(=O)NCCOP(=O)(O)O)c4[nH]c(cc5nc(cc1[nH]2)C(C)=C5CC)c(C)c4C(=O)O)[C@@H](CCC(=O)O)[C@@H]3C` [Ce6-mono-EP OA^15], the inhibition at 100 µM was -5% in experiment [5] (100 uM, Dark) and 71% in experiment [5] (100 uM, Light).
As for `C=Cc1c(C)c2cc3nc(c(CC(=O)[O-])c4[nH]c(cc5nc(cc1[nH]2)C(C)=C5CC)c(C)c4C(=O)[O-])[C@@H](CCC(=O)[O-])[C@@H]3C.[Na+].[Na+].[Na+]` [Ce6Na3], the “Relative Inactivation (log[CFUcontrol mL^−1] − log[CFUtreatment mL^−1])” value in experiment [1] (Dark control plate) was −0.03 ± 0.13; in experiment [1] (setting [7]), 0.39 ± 0.29. The Inhibition in experiment [5] (10 uM, Dark) is given as −4%; in experiment [5] (10 uM, Light), 53%; in experiment [5] (100 uM, Dark), 16%; in experiment [5] (100 uM, Light) it was 66%; in experiment [2] (setting [8]), 26%; in experiment [2] (setting [9]), 74%. Further, the Inhibition in experiment [2] (Light, 5 μM, agar plate) amounted to 39%; in experiment [2] (Light, 10 μM, agar plate), 74%; in experiment [2] (Light, 31 μM, agar plate), 99%; in experiment [2] (No Light, 5 μM, agar plate) it was 13%; in experiment [2] (No Light, 10 μM, agar plate), 26%; in experiment [2] (No Light, 31 μM, agar plate), 44%. In addition, the “Turf Quality” value in experiment [6] is 6.

By inhibition is commonly meant the drop in the measured response relative to a control, in per cent. As usually defined, the Inhibition is the change of the read-out against control, counted positive when it falls.
